Publication PMC12090178, “Exploring the Potential of Homologous Recombination Protein PALB2 in Synthetic Lethal Combinations” (ACS Chemical Biology, 2025)
“Also recorded” adds a separate entry of the source. One block for each molecule: values may come before it. Where no end group is shown, it is not given here.

Legend:
Rad51 foci = Rad51 foci assay; assay type: cell-based; conditions: Pom 10 μM 24 h, then CPT 10 nM 12 h
Description: 50,000 cells (WT HEK293 or HEK293-PALB2^IKZF 3d/IKZF 3d) were seeded on coverslips and cultured with Pom (10 μM). After 24 h, CPT was added (10 nM). […] After removing the BSA-containing PBS, coverslips were incubated with primary antibody (Alexa Fluor 488 Anti-Rad51 antibody [EPR4030(3)] (Abcam, ab309674, RRID/AB_3675862), 1:500 in PBS) for 2 h and washed with PBS (3 times). Then, coverslips were mounted with antifade mountant with DAPI (Invitrogen) and fluorescence images were recorded by confocal microscopy (Leica Point Scanning Confocal SP8). Rad51 foci numbers in each cell were counted with Fiji ImageJ.
6 Homologous recombination assay
DR-GFP1 substrate (a gift from Maria Jasin, Addgene plasmid #26475; RRID:Addgene_26475) is flanked by human AAVS1 homology arms. Endogenous AAVS1 promoter drives T2A-hygromycin expression after integration. PX458-AAVS1 (#113194, Addgene) encodes sgRNA for human AAVS1 and expresses Cas9 nuclease. […]
(§1) After obtaining cells carrying the DR-GFP reporter, cells were maintained in medium with 10 µM pomalidomide for 24 hours. […] Four days after transfection, cells were resuspended in PBS and analyzed by flow cytometry using a BD LSR Fortessa. […]
(§2) primary antibody incubation, coverslips were washed 3 times with PBS. […] Fluorescence images were taken by confocal microscopy (LEICA POINT SCANNING CONFOCAL SP8). RAD51 f o ci numbers in each cell we re counted with Fiji ImageJ.

[1] = test system: HEK293 PALB2 IKZF3d/IKZF3d knock-in cells; experiment: Cell viability assay (WST-1); assay type: cell-based; conditions: 4 days (96 h), Pom 0, 5, 10 and 40 μM, WST-1
[2] = test system: homologous recombination repair (DR-GFP reporter); experiment: DR-GFP reporter assay of homologous recombination; assay type: cell-based
Description: DR-GFP plasmid[53] (a gift from Maria Jasin, Addgene plasmid #26475; RRID/Addgene_26475) was transfected into HEK293 cells with TurboFect (Thermo Scientific) at 70% confluency and selected with hygromycin (0.1 g/L, Invivogen) after 48 h. Transfected cells were moved to a 150 mm cell culture dish and cultured in DMEM medium with hygromycin (0.1 g/L). After obtaining cells carrying the DR-GFP reporter, the cells were treated with Pom for 24 h. Cells were then transfected with a modified pCBASceI[53] (a gift from Maria Jasin, Addgene plasmid #26477; RRID/Addgene_26477, I-SceI was expressed with P2A-mCherry to select for positively transfected cells) to introduce DSB at the I-SceI site in inserted DR-GFP plasmid. Four days after transfection, cells were resuspended in PBS and analyzed by flow cytometry.
6 Homologous recombination assay […]
as §1, §2

PALB2-IKZF3d = experiment: IMiD-induced degradation of PALB2-IKZF3d (Western blot); assay type: cell-based; conditions: for degradation of PALB2 in IKZF3d knock-in cells: homozygous IKZF3d knock-in HEK293 cells, 24 h treatment
Description: 5.1 Degradation of PALB2 and UPP rescue assays
To show PALB2 deegradation, cells were treated with pomalidomide at the indicated concentrations for 24 h. The cells were subsequently lysed and prepared for gel electrophoresis and western blotting.
To show UPP rescue, MG132 and MLN4924 were used to inhibit the ubiquitination-proteasome degradation pathway. The cells were first treated with 1 μM MG132 or 1 μM MLN4924. After 6 h, pomalidomide was added to a final concentration of 10 μM. After 18 h, the cells were collected and lysed.
To show PALB2 recovery, the cells were first treated with 10 μM pomalidomide or 10 μM iberdomide for 24 h. After that, the culture medium was removed, the cells were washed three times with fresh culture medium and then cultured with culture medium without IMiDs.
The cells were then collected an d l yse d . […]
Figure S7. A). Degradation of endogenous PALB2.
B). PALB2 de gra dation rescue expe ri ment. The cells in the degradation rescue group w ere first t reated with 1 μ M MG132 and 1 μ M M LN49 24 for 6 hou rs and then t reated with 10 μ M pomalidomide for 1 8 hours. Cell samples were collected for WB analysis. The asterisk represents a nonspecific band of PALB 2 with t his antibody. […]

[3] = molecular target: PALB2 C-terminal WD40 domain; conditions: previous structural work; read-out: binding affinity to PALB2; cited from earlier work
Description: Previous structural work on the PALB2 C-terminal WD40 domain identified a small fragment of BRCA2 (residues 21–39) with an approximately 600 nM binding affinity (600 nM) to PALB2 (see Figure 2A for structure).[16] […] Binding of the BRCA2(21–39) peptide using fluorescence polarization (FP) with fluorescein (FAM) indeed gave a value in close alignment with the previous report (Figure 2B).[16] Building from this observation we further characterized the binding of amino acids 1 ...

[4] = molecular target: BRCA2 21-39 (Homo sapiens) (UniProt P51587); conditions: cited from earlier work
SmBiT-PALB2 = experiment: NanoBit protein-protein interaction assay in HEK293 cells; assay type: cell-based; conditions: BRCA2 peptide fused to LgBiT, HEK293, 24 h after transfection, signal normalized to empty vector
Description: The NanoBit CMV MCS BiBiT-Ready Vector (Promega) was modified to express PALB2 with a C-Terminal SmBit and the BRCA2 N-terminal peptide with a N-terminal LgBit. 5000 HEK293 cells were seeded in each well of a 96-well plate with a white bottom and grown for 24 h with cell medium (DMEM supplemented with 10% FCS at 37 °C with 5% CO2). The plasmid (100 ng) was transfected with FuGene HD (Promega, E5911) and incubated for 24 h. Then, Nano-Glo Live cell assay substrate (Promega) was added and the luminescence signal was recorded for 1000 ms. Signal was normalized to empty vector.
3 PALB2-BRCA2 interaction assays
0.5 million HEK293 cells were seeded per well in a 6-well plate. After 24 h, 2 μg of plasmid pCMV-FLAG-PALB2-IKZF3d or pCMV-FLAG-GFP-IKZF3d (control group) was transiently transfected with TurboFect (Thermo Scientific, e.g. R0531 or R0533) int o each well . After 36 h , the medium of at least 3 wells was removed. The cells were washed once with cold PBS on ice. […] The samples were analyzed by Western Blot. […]
NanoBiT CMV MCS BiBiT-Ready Vector (Promega) was used to construct a plasmid that can express LgBit fusion and SmBit fusion at the same time in cells. […] 24 hours after transfection, the luminescence signal of each well was obtained by adding Nano-Glo Live Cell Assay System (Promega) and the signal was read on a T e can S p ark 10M ( Tecan) for 1000 ms without temperature control.

[5] = molecular target: T1, PALB2 C-terminal WD40 domain (UniProt Q86YC2 835-1186); experiment: fluorescence polarisation; not told for these peptides whether direct (labelled peptide) or displacement (dark peptide at 10 μM added to the PALB2C dilution series with 10 nM fluorescent peptide; competitive binding model); 25 °C; conditions: both partners purified
T1 construct: PALB2 (partner and localizer of BRCA2), C-terminal WD40 beta-propeller domain; as I recall that construct spans about residues 835-1186; methods are in the Supporting Information; also called PALB2 C-terminal domain
T1 sequence: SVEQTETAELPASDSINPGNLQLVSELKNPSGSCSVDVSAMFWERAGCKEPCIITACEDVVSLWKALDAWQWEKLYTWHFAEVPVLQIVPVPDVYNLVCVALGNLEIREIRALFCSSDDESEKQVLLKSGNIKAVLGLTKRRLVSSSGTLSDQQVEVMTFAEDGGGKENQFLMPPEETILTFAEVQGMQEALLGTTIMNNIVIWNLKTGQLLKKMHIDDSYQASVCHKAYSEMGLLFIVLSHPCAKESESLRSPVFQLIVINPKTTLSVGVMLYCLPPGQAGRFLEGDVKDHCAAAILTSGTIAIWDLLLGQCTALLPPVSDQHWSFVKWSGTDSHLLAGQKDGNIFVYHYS

Molecule: Nc1cccc2c1C(=O)N(C1CCC(=O)NC1=O)C2=O (stereo not shown) [Pom, pomalidomide]
number of Rad51 foci formed in response to DSBs by camptothecin (Rad51 foci; PALB2 IKZF3d/IKZF3d cells): significantly decrease | compromised Rad51 foci formation (Rad51 foci; PALB2 wild-type cells): not observed | viability of WT and KI cell lines with Pom alone [1]: did not show strong differences | GFP-positive cells (DR-GFP) ([2]; HEK293 wild-type cells, Pom vs DMSO control): remained largely unchanged | GFP-positive cells (DR-GFP) ([2]; PALB2 IKZF3d/IKZF3d cells, 10 μM Pom 24 h before I-SceI transfection, flow cytometry after 4 days): notable decrease in GFP-positive cells | recovery of PALB2 levels after wash out (PALB2-IKZF3d; 10 μM IMiD for 24 h, then medium removed and cells washed, knock-in cells): PALB2 levels recover after 24 h | degradation of transiently expressed PALB2-IKZF3d fusion (PALB2-IKZF3d; HEK293, transient transfection, 10 μM pomalidomide, 24 h): occurred only with the C-terminal fusion; also recorded: shows degradation | degradation of PALB2 in IKZF3d knock-in cells (PALB2-IKZF3d): significant degradation of PALB2 | degradation of PALB2 in IKZF3d knock-in cells (PALB2-IKZF3d; listed as pomalidomide): degrade most of the endogenous PA LB2

Molecule: BRCA2 (residues 21–39): small fragment of BRCA2 (residues 21-39) from previous structural work (fluorescein-GGKADLGPISLNWFEELSSEA)
Kd [3]: ~600 nM

Molecule: PALB2 WD40 (from UniProt Q86YC2)
Kd [4]: 600 nM

Molecule: W31R mutation of the BRCA(21–39) peptide: point mutated BRCA2 peptide (21-39, W31R) fused with LgBit; negative control (KADLGPISLNRFEELSSEA; also: fused with LgBiT)
NanoBit interaction signal with PALB2 (SmBiT-PALB2): complete loss of the interaction signal

Kd [5]: 8000 nM
B1: BRCA(23–33) (peptide, UniProt P51587 23-33, looked up)
peptide: DLGPISLNWFE
notes: BRCA2 residues 23-33; Rink amide beads: probably a C-terminal amide (my surmise); also called absolute minimal peptide; source: synthetic peptide (SPPS, preparative HPLC)
